Measured values reported in patent publication US20100267561A1, “HERBICIDAL PYRIDAZINONE DERIVATIVES” (priority 2007, published 2010).

Tests used:
Format in all cases: in vivo
[1] = system: chickweed (Stellaria media); assay: Test B postemergence plant response; details: for Chickweed plant response rating: 8 g ai/ha, postemergence, 0-100 scale; for Plant response rating, Chickweed: Postemergence
In short: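 Visual injury score from 0 (none) to 100 (complete control) versus controls, taken 13 to 15 days after treatment in the greenhouse; chemicals applied postemergence, as formulated, to plants of 1- to 4-leaf stage (2 to 18 cm tall); dash denotes no test result.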

[2] = system: wheat (Triticum aestivum); assay: Test A pre-/postemergence plant response
In short: (§1)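 Ratings run 0–100 (100 = complete control), assigned visually against untreated controls roughly 10 days after treatment in a greenhouse. Compounds, formulated in non-phytotoxic solvent containing surfactant, were applied as a soil-directed preemergence spray and concurrently postemergence to one- to two-leaf plants 2–10 cm tall.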

[3] = system: morningglory (Ipomoea coccinea); assay: Test A pre-/postemergence plant response
In short: as §1

[4] = system: barnyardgrass (Echinochloa crus-galli); assay: Test A pre-/postemergence plant response
In short: as §1

[5] = system: pigweed (Amaranthus retroflexus); assay: Test A pre-/postemergence plant response
In short: as §1

[6] = system: velvetleaf (Abutilon theophrasti); assay: Test A pre-/postemergence plant response
In short: as §1

[7] = system: large crabgrass (Digitaria sanguinalis); assay: Test A pre-/postemergence plant response
In short: as §1

[8] = system: giant foxtail (Setaria faberi); assay: Test A pre-/postemergence plant response
In short: as §1

corn (Zea mays) = assay: Test A pre-/postemergence plant response
In short: as §1

[9] = system: bermudagrass (Cynodon dactylon); assay: Test B pre-/postemergence plant response; details: for Bermudagrass plant response rating: 8 g ai/ha
In short: (§2)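 Visual scoring from 0 (no effect) to 100 (complete control) against untreated controls was done 13 to 15 days after greenhouse treatment. Chemicals were formulated in a surfactant-containing non-phytotoxic solvent and applied to soil preemergence or to 1- to 4-leaf (2-18 cm) plants postemergence.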

[10] = system: cocklebur (Xanthium strumarium); assay: Test B pre-/postemergence plant response; details: for Cocklebur plant response rating: 8 g ai/ha
In short: as §2

[11] = system: yellow nutsedge (Cyperus esculentus); assay: Test B pre-/postemergence plant response; details: for Nutsedge, Yellow plant response rating: 8 g ai/ha
In short: as §2

[12] = 31 g ai/ha, scale 0 to 100, 0 no effect, 100 complete control
[13] = 62 g ai/ha, scale 0 to 100, 0 no effect, 100 complete control
[14] = Postemergence, 31 g ai/ha, 0 to 100 scale (0 no effect, 100 complete control)
[15] = Postemergence, 125 g ai/ha, 0 to 100 scale, 0 no effect, 100 complete control
[16] = Preemergence, 31 g ai/ha, 0 to 100 scale, 0 is no effect, 100 is complete control
[17] = Preemergence, 125 g ai/ha, 0 to 100 scale (0 no effect, 100 complete control)
[18] = Postemergence, 16 g ai/ha, scale 0 to 100
[19] = Postemergence, 31 g ai/ha, scale 0 to 100, 0 no effect, 100 complete control
[20] = Postemergence, 62 g ai/ha, scale 0 to 100, 0 no effect, 100 complete control
[21] = Preemergence, scale 0 to 100 (0 no effect, 100 complete control)
[22] = Preemergence, 16 g ai/ha, scale 0 to 100 (0 no effect, 100 complete control)
[23] = Preemergence, 31 g ai/ha, 0 to 100 scale, 0 no effect, 100 complete control
[24] = Preemergence, 62 g ai/ha, scale 0 to 100

Compound: COC(=O)Oc1cnn(C)c(=O)c1-n1nc(-c2ccc(Cl)cc2)cc1C [Compound 33]
- Chickweed plant response rating [1]: 0
- Plant response rating, Chickweed ([1]; 16 g ai/ha, scale 0 to 100): 0
- Plant response rating, Chickweed [1, 12]: 0
- Plant response rating, Chickweed [1, 13]: 0
- Plant response rating, Wheat [2, 14]: 20
- Plant response rating, Wheat [2, 15]: 70
- Plant response rating, Wheat [2, 16]: 50
- Plant response rating, Wheat [2, 17]: 80
- Plant response rating, Morningglory [3, 14]: 0
- Plant response rating, Morningglory [3, 15]: 0
- Plant response rating, Morningglory [3, 16]: 0
- Plant response rating, Morningglory [3, 17]: 0
- Plant response rating, Barnyardgrass [4, 14]: 90
- Plant response rating, Barnyardgrass [4, 15]: 100
- Plant response rating, Barnyardgrass [4, 16]: 100
- Plant response rating, Barnyardgrass [4, 17]: 100
- Plant response rating, Pigweed [5, 14]: 0
- Plant response rating, Pigweed [5, 15]: 0
- Plant response rating, Pigweed [5, 17]: 0
- Plant response rating, Velvetleaf [6, 14]: 0
- Plant response rating, Velvetleaf [6, 15]: 0
- Plant response rating, Velvetleaf [6, 16]: 0
- Plant response rating, Velvetleaf [6, 17]: 0
- Plant response rating, Crabgrass, Large [7, 14]: 90
- Plant response rating, Crabgrass, Large [7, 15]: 100
- Plant response rating, Crabgrass, Large [7, 16]: 90
- Plant response rating, Crabgrass, Large [7, 17]: 100
- Plant response rating, Foxtail, Giant [8, 14]: 90
- Plant response rating, Foxtail, Giant [8, 15]: 100
- Plant response rating, Foxtail, Giant [8, 16]: 100
- Plant response rating, Foxtail, Giant [8, 17]: 100
- Plant response rating, Corn (corn (Zea mays); [14]): 60
- Plant response rating, Corn (corn (Zea mays); [15]): 90
- Plant response rating, Corn (corn (Zea mays); [16]): 30
- Plant response rating, Corn (corn (Zea mays); [17]): 90
- Bermudagrass plant response rating ([9]; postemergence, 0-100 scale): 70
- Plant response rating, Bermudagrass [9, 18]: 100
- Plant response rating, Bermudagrass [9, 19]: 100
- Plant response rating, Bermudagrass [9, 20]: 100
- Bermudagrass plant response rating [9, 21]: 80
- Plant response rating, Bermudagrass [9, 22]: 98
- Plant response rating, Bermudagrass [9, 23]: 100
- Plant response rating, Bermudagrass [9, 24]: 100
- Cocklebur plant response rating ([10]; postemergence, 0-100 scale): 0
- Plant response rating, Cocklebur [10, 18]: 0
- Plant response rating, Cocklebur [10, 19]: 0
- Plant response rating, Cocklebur [10, 20]: 0
- Plant response rating, Cocklebur [10, 22]: 0
- Plant response rating, Cocklebur [10, 23]: 0
- Cocklebur plant response rating ([10]; Preemergence, scale 0 to 100): 0
- Nutsedge, Yellow plant response rating ([11]; postemergence, 0-100 scale): 0
- Plant response rating, Nutsedge, Yellow [11, 18]: 0
- Plant response rating, Nutsedge, Yellow [11, 19]: 0
- Plant response rating, Nutsedge, Yellow [11, 20]: 0
- Plant response rating, Nutsedge, Yellow [11, 22]: 0
- Plant response rating, Nutsedge, Yellow [11, 23]: 0
- Plant response rating, Nutsedge, Yellow [11, 24]: 0
- Nutsedge, Yellow plant response rating ([11]; Preemergence, scale 0 to 100): 0

Compound: Cc1cc(-c2ccc(Cl)cc2)nn1-c1c(OC(=O)C(C)C)cnn(C)c1=O [Compound 34]
- Chickweed plant response rating [1]: 0
- Plant response rating, Chickweed ([1]; 16 g ai/ha, scale 0 to 100): 0
- Plant response rating, Chickweed [1, 12]: 0
- Plant response rating, Chickweed [1, 13]: 0
- Plant response rating, Wheat [2, 14]: 40
- Plant response rating, Wheat [2, 15]: 60
- Plant response rating, Wheat [2, 16]: 30
- Plant response rating, Wheat [2, 17]: 70
- Plant response rating, Morningglory [3, 14]: 0
- Plant response rating, Morningglory [3, 15]: 0
- Plant response rating, Morningglory [3, 16]: 0
- Plant response rating, Morningglory [3, 17]: 0
- Plant response rating, Barnyardgrass [4, 14]: 90
- Plant response rating, Barnyardgrass [4, 15]: 100
- Plant response rating, Barnyardgrass [4, 16]: 70
- Plant response rating, Barnyardgrass [4, 17]: 100
- Plant response rating, Pigweed [5, 14]: 0
- Plant response rating, Pigweed [5, 15]: 10
- Plant response rating, Pigweed [5, 16]: 0
- Plant response rating, Pigweed [5, 17]: 0
- Plant response rating, Velvetleaf [6, 14]: 0
- Plant response rating, Velvetleaf [6, 15]: 0
- Plant response rating, Velvetleaf [6, 16]: 0
- Plant response rating, Velvetleaf [6, 17]: 0
- Plant response rating, Crabgrass, Large [7, 14]: 70
- Plant response rating, Crabgrass, Large [7, 15]: 100
- Plant response rating, Crabgrass, Large [7, 16]: 80
- Plant response rating, Crabgrass, Large [7, 17]: 90
- Plant response rating, Foxtail, Giant [8, 14]: 90
- Plant response rating, Foxtail, Giant [8, 15]: 100
- Plant response rating, Foxtail, Giant [8, 16]: 100
- Plant response rating, Foxtail, Giant [8, 17]: 100
- Plant response rating, Corn (corn (Zea mays); [14]): 70
- Plant response rating, Corn (corn (Zea mays); [15]): 90
- Plant response rating, Corn (corn (Zea mays); [16]): 20
- Plant response rating, Corn (corn (Zea mays); [17]): 60
- Bermudagrass plant response rating ([9]; postemergence, 0-100 scale): 65
- Plant response rating, Bermudagrass [9, 18]: 100
- Plant response rating, Bermudagrass [9, 19]: 100
- Plant response rating, Bermudagrass [9, 20]: 100
- Bermudagrass plant response rating [9, 21]: 50
- Plant response rating, Bermudagrass [9, 22]: 98
- Plant response rating, Bermudagrass [9, 23]: 98
- Plant response rating, Bermudagrass [9, 24]: 100
- Cocklebur plant response rating ([10]; postemergence, 0-100 scale): 0
- Plant response rating, Cocklebur [10, 18]: 0
- Plant response rating, Cocklebur [10, 19]: 0
- Plant response rating, Cocklebur [10, 20]: 0
- Plant response rating, Cocklebur [10, 22]: 0
- Plant response rating, Cocklebur [10, 23]: 0
- Plant response rating, Cocklebur [10, 24]: 0
- Cocklebur plant response rating ([10]; Preemergence, scale 0 to 100): 0
- Nutsedge, Yellow plant response rating ([11]; postemergence, 0-100 scale): 0
- Plant response rating, Nutsedge, Yellow [11, 18]: 0
- Plant response rating, Nutsedge, Yellow [11, 19]: 0
- Plant response rating, Nutsedge, Yellow [11, 20]: 0
- Plant response rating, Nutsedge, Yellow [11, 22]: 0
- Plant response rating, Nutsedge, Yellow [11, 23]: 0
- Plant response rating, Nutsedge, Yellow [11, 24]: 0
- Nutsedge, Yellow plant response rating ([11]; Preemergence, scale 0 to 100): 0
